Where “and” joins values, the source holds several entries; their conditions need not be identical. Equal entries are not always repeated.
Details: for mass density: buoyancy; for vapor or sublimation pressure: Closed cell (Static) method

O=C=O [carbon dioxide]
Fluid (supercritical or subcritical phases)
Details	mass density
233.06 K, 500.05 kPa	12.0703 kg/m3
233.06 K, 799.98 kPa	20.1488 kg/m3
233.07 K, 105.91 kPa	2.43371 kg/m3 and 2.42701 kg/m3
233.07 K, 300.07 kPa	7.05798 kg/m3
243 K, 1000.7 kPa	24.4253 kg/m3
243.01 K, 300.03 kPa	6.73594 kg/m3
243.01 K, 500.04 kPa	11.476 kg/m3
243.01 K, 800 kPa	19.0248 kg/m3
243.01 K, 1200.7 kPa	30.1422 kg/m3
243.02 K, 100.02 kPa	2.20055 kg/m3
253.21 K, 500.06 kPa	10.9367 kg/m3
253.21 K, 1500.7 kPa	36.7146 kg/m3
253.22 K, 100.07 kPa	2.116 kg/m3
253.22 K, 100.08 kPa	2.11111 kg/m3
253.22 K, 1000.1 kPa	23.0281 kg/m3
253.22 K, 1800.9 kPa	45.9785 kg/m3
263.31 K, 1000.6 kPa	21.8592 kg/m3
263.32 K, 500.07 kPa	10.4541 kg/m3
263.32 K, 1500.1 kPa	34.4562 kg/m3
263.32 K, 2000.2 kPa	48.7144 kg/m3
263.32 K, 2200.2 kPa	55.0401 kg/m3
263.32 K, 2500 kPa	65.4007 kg/m3
263.33 K, 100.03 kPa	2.02538 kg/m3
273.56 K, 100.01 kPa	1.94808 kg/m3
273.56 K, 100.02 kPa	1.95635 kg/m3
273.56 K, 500.01 kPa	10.0139 kg/m3
273.56 K, 1000 kPa	20.7952 kg/m3
273.56 K, 2000.3 kPa	45.5031 kg/m3
273.56 K, 2500.6 kPa	60.111 kg/m3
273.56 K, 3000 kPa	77.0441 kg/m3
273.56 K, 3200.5 kPa	84.7746 kg/m3
273.56 K, 3401.2 kPa	93.2811 kg/m3
283.51 K, 3000.3 kPa	70.8325 kg/m3
283.51 K, 4000.8 kPa	107.963 kg/m3
283.52 K, 100.06 kPa	1.8788 kg/m3
283.52 K, 999.98 kPa	19.8874 kg/m3
283.52 K, 2000 kPa	42.914 kg/m3
283.52 K, 4200.9 kPa	117.472 kg/m3
293.08 K, 100.15 kPa	1.81243 kg/m3
293.08 K, 100.16 kPa	1.8183 kg/m3
293.08 K, 2000 kPa	40.7832 kg/m3
293.08 K, 3000.4 kPa	66.2045 kg/m3
293.08 K, 4000.2 kPa	97.5691 kg/m3
293.08 K, 5000.2 kPa	140.798 kg/m3
293.08 K, 5501.3 kPa	173.325 kg/m3
293.09 K, 1000.2 kPa	19.1053 kg/m3

Liquid
Details	mass density	vapor or sublimation pressure
233.07 K	1116.54 kg/m3 and 1116.44 kg/m3	1000.7 kPa and 1000.8 kPa
243.01 K	1076.52 kg/m3	1420.4 kPa and 1420.5 kPa
253.22 K	1031.59 kg/m3 and 1031.49 kg/m3	1974.2 kPa and 1974.5 kPa
263.31 K	981.93 kg/m3	2661.6 kPa
263.32 K	981.93 kg/m3	2661.9 kPa
273.55 K	924.89 kg/m3	3522.1 kPa
273.56 K	924.87 kg/m3	3522.4 kPa
283.51 K	858.57 kg/m3	4543.2 kPa
283.52 K	858.55 kg/m3	4543.6 kPa
293.08 K	774.28 kg/m3	5720.9 kPa
293.09 K	774.23 kg/m3	5721.4 kPa

N#N [nitrogen]
Fluid (supercritical or subcritical phases)
Details	mass density [kg/m3]
233.02 K, 506.32 kPa	7.36302
233.02 K, 1007.1 kPa	14.7253
233.02 K, 2000.9 kPa	29.5563
233.02 K, 3001.4 kPa	44.779
233.02 K, 5030.2 kPa	76.3292
233.02 K, 5501 kPa	83.7756
233.03 K, 506.34 kPa	7.36678
233.03 K, 4002.6 kPa	60.2496
253.36 K, 3010.1 kPa	40.8167
253.36 K, 5651.9 kPa	77.5333
253.37 K, 158.12 kPa	2.1053
253.37 K, 1025.2 kPa	13.7338
253.37 K, 5051.9 kPa	69.1481
253.38 K, 158.09 kPa	2.10982
253.38 K, 2061.7 kPa	27.8018
253.38 K, 4007.1 kPa	54.5977
273.05 K, 1000.4 kPa	12.3984
273.06 K, 500.06 kPa	6.18643
273.06 K, 500.07 kPa	6.19019
273.06 K, 500.09 kPa	6.18538
273.06 K, 2000 kPa	24.878
273.06 K, 3000.1 kPa	37.4313
273.06 K, 4000 kPa	50.0451
273.06 K, 5000.4 kPa	62.6679
273.06 K, 5500 kPa	68.9746
293.02 K, 5015.1 kPa	58.0251
293.03 K, 109.97 kPa	1.26716
293.03 K, 1037 kPa	11.9492
293.03 K, 2014 kPa	23.2508
293.03 K, 3106.2 kPa	35.9063
293.03 K, 3996.5 kPa	46.2267
293.03 K, 5611.3 kPa	64.8959
293.04 K, 109.35 kPa	1.25784
313.12 K, 508.1 kPa	5.46882
313.12 K, 508.11 kPa	5.46814
313.12 K, 1000.3 kPa	10.7709
313.12 K, 1999.8 kPa	21.5387
313.12 K, 3999.9 kPa	43.0379
313.12 K, 5000.1 kPa	53.7535
313.13 K, 2999.7 kPa	32.2955
313.13 K, 5500 kPa	59.0903
333.12 K, 147.29 kPa	1.48909
333.12 K, 147.34 kPa	1.48309
333.12 K, 1049 kPa	10.6026
333.12 K, 2020.6 kPa	20.4085
333.12 K, 3039 kPa	30.6553
333.12 K, 4001.5 kPa	40.3032
333.12 K, 5029.1 kPa	50.5504
333.12 K, 5511.3 kPa	55.3242
353.31 K, 500.05 kPa	4.76148
353.31 K, 500.09 kPa	4.76373
353.31 K, 1001.8 kPa	9.53854
353.31 K, 4000.7 kPa	37.8636
353.32 K, 500.08 kPa	4.76448
353.32 K, 2000 kPa	19.0116
353.32 K, 3001.8 kPa	28.4762
353.32 K, 4999.9 kPa	47.189
353.32 K, 5500 kPa	51.8318

O [water]
Liquid
Details	mass density
273.62 K, 105.71 kPa	999.859 kg/m3
273.62 K, 1225.7 kPa	1000.42 kg/m3
273.63 K, 105.71 kPa	999.82 kg/m3
273.63 K, 2307.2 kPa	1001.02 kg/m3
273.63 K, 3781.6 kPa	1001.68 kg/m3
273.63 K, 4990.1 kPa	1002.27 kg/m3
292.94 K, 1063.5 kPa	998.673 kg/m3
292.94 K, 2097.6 kPa	999.18 kg/m3
292.94 K, 3109.3 kPa	999.633 kg/m3
292.94 K, 4139.9 kPa	1000.06 kg/m3 and 1000.08 kg/m3
292.95 K, 109.3 kPa	998.268 kg/m3
302.91 K, 110.01 kPa	995.77 kg/m3
302.91 K, 2049.8 kPa	996.571 kg/m3
302.91 K, 4030.1 kPa	997.451 kg/m3
302.92 K, 1005.9 kPa	996.106 kg/m3
312.96 K, 345.05 kPa	992.42 kg/m3
312.96 K, 1195.1 kPa	992.749 kg/m3
312.96 K, 2093.1 kPa	993.139 kg/m3
312.96 K, 3064.5 kPa	993.609 kg/m3
312.96 K, 4141.2 kPa	994.071 kg/m3

Source: the NIST ThermoML archive (doi:10.1021/je0497496)
